target: SUMO-conjugating enzyme UBC9 (Homo sapiens) (UniProt P63279); test: blockers of SAE1/SAE2–UBC9 SUMO transfer – biochemical, HTRF, uHTS, primary screen (AID 2006); settings: HTRF SUMOylation assay, SAE1/SAE2 + UBC9, in vitro
Sequence (P63279 whole entry, looked up): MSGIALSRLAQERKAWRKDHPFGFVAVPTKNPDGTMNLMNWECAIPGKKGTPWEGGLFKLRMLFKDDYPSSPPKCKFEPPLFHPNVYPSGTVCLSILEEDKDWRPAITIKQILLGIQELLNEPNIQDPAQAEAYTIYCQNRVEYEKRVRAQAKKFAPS

IC50, active:
O=C1NC(=Nc2ccc3ccccc3c2)S/C1=C/c1ccco1 14 µM
NS(=O)(=O)c1ccc(NC(=O)c2ccc(-c3ccccc3)cc2)cc1 13.8 µM
O=C(CN1C(=O)S/C(=C\c2ccccc2)C1=O)NNC(=O)c1ccccc1O 37.9 µM
O=C(O)c1ccc(/C=N/NC(=O)c2ccc(CN3c4cccc5cccc(c45)S3(=O)=O)cc2)cc1 11.1 µM

From PubChem BioAssay AID2006 (Sanford-Burnham Center for Chemical Genomics, 2009)
